According to PubChem BioAssay (NCI):
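Dose response: 5 concentrations. Exposure: 48 h. Format: 96-well plates. Endpoint: linear interpolation; highest concentration if not reached. Abbreviation: GI50, concentration required for 50% inhibition of growth. At the TGI there is no net growth.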

Experiments:
Experiment in all cases: DTP human tumour cell line panel, 48 h
HL-60(TB) leukemia = tested on: HL-60(TB) leukemia
MOLT-4 leukemia = tested on: MOLT-4 leukemia
HT29 colon = tested on: HT29 colon
SK-MEL-5 melanoma = tested on: SK-MEL-5 melanoma
OVCAR-3 ovarian = tested on: OVCAR-3 ovarian
UACC-62 melanoma = tested on: UACC-62 melanoma
DU-145 prostate = tested on: DU-145 prostate
UO-31 renal = tested on: UO-31 renal
LOX IMVI melanoma = tested on: LOX IMVI melanoma
HCC-2998 colon = tested on: HCC-2998 colon
MCF7 breast = tested on: MCF7 breast
A498 renal = tested on: A498 renal
CAKI-1 renal = tested on: CAKI-1 renal
PC-3 prostate = tested on: PC-3 prostate
A549 NSCLC = tested on: A549 NSCLC
SR leukemia = tested on: SR leukemia
NCI-H23 lung = tested on: NCI-H23 lung
SNB-19 CNS = tested on: SNB-19 CNS
HOP-62 NSCLC = tested on: HOP-62 NSCLC
SF-295 CNS = tested on: SF-295 CNS
NCI-H522 lung = tested on: NCI-H522 lung
ACHN renal = tested on: ACHN renal
SK-MEL-2 melanoma = tested on: SK-MEL-2 melanoma
786-0 renal = tested on: 786-0 renal
K-562 leukemia = tested on: K-562 leukemia
BT-549 breast = tested on: BT-549 breast
SK-OV-3 ovarian = tested on: SK-OV-3 ovarian
SF-268 CNS = tested on: SF-268 CNS
OVCAR-8 ovarian = tested on: OVCAR-8 ovarian
SK-MEL-28 melanoma = tested on: SK-MEL-28 melanoma
TK-10 renal = tested on: TK-10 renal
MALME-3M melanoma = tested on: MALME-3M melanoma
HCT-15 colon = tested on: HCT-15 colon
T-47D breast = tested on: T-47D breast
U251 CNS = tested on: U251 CNS
M14 melanoma = tested on: M14 melanoma
MDA-MB-435 = tested on: MDA-MB-435
NCI/ADR-RES ovarian = tested on: NCI/ADR-RES ovarian
KM12 colon = tested on: KM12 colon
NCI-H226 lung = tested on: NCI-H226 lung
NCI-H460 lung = tested on: NCI-H460 lung
IGROV1 ovarian = tested on: IGROV1 ovarian
HS 578T breast = tested on: HS 578T breast
UACC-257 melanoma = tested on: UACC-257 melanoma
HOP-92 NSCLC = tested on: HOP-92 NSCLC
SNB-75 CNS = tested on: SNB-75 CNS
OVCAR-5 ovarian = tested on: OVCAR-5 ovarian
HCT-116 colon = tested on: HCT-116 colon
SF-539 CNS = tested on: SF-539 CNS
OVCAR-4 ovarian = tested on: OVCAR-4 ovarian
RXF 393 renal = tested on: RXF 393 renal
SN12C renal = tested on: SN12C renal
MDA-MB-231 breast = tested on: MDA-MB-231 breast
COLO 205 colon = tested on: COLO 205 colon
SW-620 colon = tested on: SW-620 colon
RPMI-8226 leukemia = tested on: RPMI-8226 leukemia
CCRF-CEM leukemia = tested on: CCRF-CEM leukemia

Structure (SMILES): Nc1c(C(=O)c2cccc(OC[C@@H](O)CO)c2)cnn1-c1ccc(F)cc1
- GI50 (HL-60(TB) leukemia): > 25 µM
- TGI (HL-60(TB) leukemia): > 25 µM
- GI50 (MOLT-4 leukemia): > 25 µM
- TGI (MOLT-4 leukemia): > 25 µM
- GI50 (HT29 colon): > 25 µM
- TGI (HT29 colon): > 25 µM
- GI50 (SK-MEL-5 melanoma): > 25 µM
- TGI (SK-MEL-5 melanoma): > 25 µM
- GI50 (OVCAR-3 ovarian): > 25 µM
- TGI (OVCAR-3 ovarian): > 25 µM
- GI50 (UACC-62 melanoma): > 25 µM
- TGI (UACC-62 melanoma): > 25 µM
- GI50 (DU-145 prostate): > 25 µM
- TGI (DU-145 prostate): > 25 µM
- GI50 (UO-31 renal): > 25 µM
- TGI (UO-31 renal): > 25 µM
- GI50 (LOX IMVI melanoma): > 25 µM
- TGI (LOX IMVI melanoma): > 25 µM
- GI50 (HCC-2998 colon): > 25 µM
- TGI (HCC-2998 colon): > 25 µM
- GI50 (MCF7 breast): > 25 µM
- TGI (MCF7 breast): > 25 µM
- GI50 (A498 renal): > 25 µM
- TGI (A498 renal): > 25 µM
- GI50 (CAKI-1 renal): > 25 µM
- TGI (CAKI-1 renal): > 25 µM
- GI50 (PC-3 prostate): > 25 µM
- TGI (PC-3 prostate): > 25 µM
- GI50 (A549 NSCLC): > 25 µM
- TGI (A549 NSCLC): > 25 µM
- GI50 (SR leukemia): > 25 µM
- TGI (SR leukemia): > 25 µM
- GI50 (NCI-H23 lung): > 25 µM
- TGI (NCI-H23 lung): > 25 µM
- GI50 (SNB-19 CNS): > 25 µM
- TGI (SNB-19 CNS): > 25 µM
- GI50 (HOP-62 NSCLC): > 25 µM
- TGI (HOP-62 NSCLC): > 25 µM
- GI50 (SF-295 CNS): > 25 µM
- TGI (SF-295 CNS): > 25 µM
- GI50 (NCI-H522 lung): > 25 µM
- TGI (NCI-H522 lung): > 25 µM
- GI50 (ACHN renal): > 25 µM
- TGI (ACHN renal): > 25 µM
- GI50 (SK-MEL-2 melanoma): > 25 µM
- TGI (SK-MEL-2 melanoma): > 25 µM
- GI50 (786-0 renal): > 25 µM
- TGI (786-0 renal): > 25 µM
- GI50 (K-562 leukemia): > 25 µM
- TGI (K-562 leukemia): > 25 µM
- GI50 (BT-549 breast): > 25 µM
- TGI (BT-549 breast): > 25 µM
- GI50 (SK-OV-3 ovarian): > 25 µM
- TGI (SK-OV-3 ovarian): > 25 µM
- GI50 (SF-268 CNS): > 25 µM
- TGI (SF-268 CNS): > 25 µM
- GI50 (OVCAR-8 ovarian): > 25 µM
- TGI (OVCAR-8 ovarian): > 25 µM
- GI50 (SK-MEL-28 melanoma): > 25 µM
- TGI (SK-MEL-28 melanoma): > 25 µM
- GI50 (TK-10 renal): > 25 µM
- TGI (TK-10 renal): > 25 µM
- GI50 (MALME-3M melanoma): > 25 µM
- TGI (MALME-3M melanoma): > 25 µM
- GI50 (HCT-15 colon): > 25 µM
- TGI (HCT-15 colon): > 25 µM
- GI50 (T-47D breast): > 25 µM
- TGI (T-47D breast): > 25 µM
- GI50 (U251 CNS): > 25 µM
- TGI (U251 CNS): > 25 µM
- GI50 (M14 melanoma): > 25 µM
- TGI (M14 melanoma): > 25 µM
- GI50 (MDA-MB-435): > 25 µM
- TGI (MDA-MB-435): > 25 µM
- GI50 (NCI/ADR-RES ovarian): > 25 µM
- TGI (NCI/ADR-RES ovarian): > 25 µM
- GI50 (KM12 colon): > 25 µM
- TGI (KM12 colon): > 25 µM
- GI50 (NCI-H226 lung): > 25 µM
- TGI (NCI-H226 lung): > 25 µM
- GI50 (NCI-H460 lung): > 25 µM
- TGI (NCI-H460 lung): > 25 µM
- GI50 (IGROV1 ovarian): > 25 µM
- TGI (IGROV1 ovarian): > 25 µM
- GI50 (HS 578T breast): > 25 µM
- TGI (HS 578T breast): > 25 µM
- GI50 (UACC-257 melanoma): > 25 µM
- TGI (UACC-257 melanoma): > 25 µM
- GI50 (HOP-92 NSCLC): > 25 µM
- TGI (HOP-92 NSCLC): > 25 µM
- GI50 (SNB-75 CNS): > 25 µM
- TGI (SNB-75 CNS): > 25 µM
- GI50 (OVCAR-5 ovarian): > 25 µM
- TGI (OVCAR-5 ovarian): > 25 µM
- GI50 (HCT-116 colon): > 25 µM
- TGI (HCT-116 colon): > 25 µM
- GI50 (SF-539 CNS): > 25 µM
- TGI (SF-539 CNS): > 25 µM
- GI50 (OVCAR-4 ovarian): > 20.9 µM
- TGI (OVCAR-4 ovarian): > 25 µM
- GI50 (RXF 393 renal): > 25 µM
- TGI (RXF 393 renal): > 25 µM
- GI50 (SN12C renal): > 25 µM
- TGI (SN12C renal): > 25 µM
- GI50 (MDA-MB-231 breast): > 25 µM
- TGI (MDA-MB-231 breast): > 25 µM
- GI50 (COLO 205 colon): > 25 µM
- TGI (COLO 205 colon): > 25 µM
- GI50 (SW-620 colon): > 25 µM
- TGI (SW-620 colon): > 25 µM
- GI50 (RPMI-8226 leukemia): > 25 µM
- TGI (RPMI-8226 leukemia): > 25 µM
- GI50 (CCRF-CEM leukemia): > 25 µM
- TGI (CCRF-CEM leukemia): > 25 µM
